Data as given in patent US20230165252A1, “ACTIVE COMPOUND COMBINATIONS” (Bayer Aktiengesellschaft, priority 2020, published 2023).
Several values for one entry are separate records, joined by “and”; a condition that tells them apart may be missing. Equal entries are not always repeated. Where two headings read alike, the source gives them in different places.

Key:
Type in all cases: cell-based
[1] = tested on: Botrytis cinerea; assay: in vitro-Test with Botrytis cinerea (microtiter growth inhibition); conditions: for Efficacy: applied alone
Description: (§1) The degree of efficacy expressed in % is denoted: 0% means an efficacy, which corresponds to that of the control, while an efficacy of 100% means that no disease is observed.
(§2) If the actual fungicidal activity exceeds the calculated value, then the activity of the combination is super-additive, i.e. a synergistic effect exists. In this case, the efficacy, which was actually observed, must be greater than the value for the expected efficacy (E), that was calculated from the abovementioned formula.
(§3) Example: In Vitro-Test with Fungal Microorganisms
(§4) Wells of 96-well microtiter plates are filled with 10 μl of a preparation of test compound or compound combination in methanol+emulsifier alkylaryl-polyglycol-ether. Thereafter, the solvent is evaporated in a hood. At the next step, 100 μl of liquid potato dextrose medium is given into each well, that has been amended with an appropriate concentration of spores or mycelium suspension of the test fungus.
(§5) With the aid of a photometer, the extinction in all wells is measured at the wavelength of 620 nm.
(§6) The microtiter plates are incubated at 20° C. and 85% relative humidity. The inhibition of growth is determined again photometrically 3-5 days after the application. Efficacy is calculated in relation to the untreated control, 0% efficacy means fungal growth as high as in untreated control while 100% efficacy means no fungal growth is measured.

[2] = tested on: Parastagonospora nodorum; assay: in vitro-Test with Parastagonospora nodorum (microtiter growth inhibition)
Description: as §1, §2, §3, §4, §5, §6

[3] = tested on: Ustilago segetum var. avenae; assay: in vitro-Test with Ustilago segetum var. avenae (microtiter growth inhibition)
Description: as §1, §2, §3, §4, §5, §6

[4] = tested on: Cercospora beticola; assay: in vitro-Test with Cercospora beticola (microtiter growth inhibition); conditions: alone
Description: as §1, §2, §3, §4, §5, §6

[5] = tested on: Diaporthe citri; assay: in vitro-Test with Diaporthe citri (microtiter growth inhibition)
Description: as §2, §3, §4, §5, §6

[6] = tested on: Cordana musae; assay: in vitro-Test with Cordana musae (microtiter growth inhibition); conditions: single substance
Description: as §1, §2, §3, §4, §5, §6

[7] = tested on: Alternaria alternate; assay: in vitro-Test with Alternaria alternate (microtiter growth inhibition)
Description: as §1, §2, §3, §4, §5, §6

[8] = Parastagonospora nodorum, compound alone, read-out: Efficacy %
[9] = Parastagonospora nodorum, compound alone, 20 ppm, read-out: Efficacy %

CCCN(CC)CC1COC2(CCC(C(C)(C)C)CC2)O1 (centres unmarked) [(1.020) spiroxamine]
inhibition of growth at 20 ppm ([1]; Botrytis cinerea, single active at 20 ppm, read-out: Efficacy %): 15% | inhibition of growth at 0.8 ppm [2, 8]: 6% | inhibition of growth at 4 ppm [2, 8]: 0% | inhibition of growth at 20 ppm [2, 9]: 0%

CC(O)(Cn1cncn1)c1ccc(Oc2ccc(Cl)cc2)cc1C(F)(F)F (centres unmarked) [(1.055) mefentrifluconazole]
Efficacy % ([3]; compound alone, 0.008 ppm): 34% | Efficacy % ([3]; compound alone, 0.04 ppm): 87% | Efficacy % ([3]; compound alone, 0.2 ppm): 98% | Efficacy % ([3]; compound alone, 1.0 ppm): 100% | Efficacy % ([1]; single active at 0.008 ppm): 0% | Efficacy % ([1]; single active at 0.04 ppm): 9% and 0% | Efficacy % ([1]; single active at 0.2 ppm): 60% and 96% | Efficacy % ([1]; single active at 1.0 ppm): 100% | Efficacy % ([2]; compound alone, 0.008 ppm): 81% | Efficacy % ([2]; compound alone, 0.04 ppm): 98% | Efficacy % ([2]; compound alone, 0.2 ppm): 99%

Cn1cc(C(=O)Nc2ccc(F)cc2-c2ccc(Cl)c(Cl)c2)c(C(F)F)n1 [(2.002) bixafen]
Efficacy % ([1]; single active at 0.008 ppm): 9% | Efficacy % ([1]; single active at 0.04 ppm): 42% | Efficacy % ([1]; single active at 0.2 ppm): 55% and 67% | Efficacy % ([1]; single active at 1.0 ppm): 67% and 73% | Efficacy % ([2]; compound alone, 0.04 ppm): 3%

C[C@@H]1CC(C)(C)c2c(F)ccc(NC(=O)c3cn(C)nc3C(F)F)c21 [(2.028) inpyrfluxam]
Efficacy % ([1]; single active at 0.008 ppm): 0% | Efficacy % ([1]; single active at 0.04 ppm): 48% and 55% | Efficacy % ([1]; single active at 0.2 ppm): 60% and 66% | Efficacy % ([1]; single active at 1.0 ppm): 63% and 91% | Efficacy % ([2]; compound alone, 0.008 ppm): 0% | Efficacy % ([2]; compound alone, 0.04 ppm): 23% | Efficacy % ([2]; compound alone, 0.2 ppm): 33% | Efficacy % ([2]; compound alone, 1.0 ppm): 33%

COc1ccnc(C(=O)N[C@H]2COC(=O)[C@H](Cc3ccccc3)[C@@H](OC(=O)C(C)C)[C@H](C)OC2=O)c1OCOC(=O)C(C)C [(3.025) fenpicoxamid]
Efficacy % ([3]; compound alone, 0.04 ppm): 3% | Efficacy % ([3]; compound alone, 0.2 ppm): 0% | Efficacy % ([3]; compound alone, 1.0 ppm): 0% | Efficacy % ([3]; compound alone, 5.0 ppm): 0% | Efficacy % ([1]; single active at 0.04 ppm): 0% | Efficacy % ([1]; single active at 0.2 ppm): 13% | Efficacy % ([1]; single active at 1.0 ppm): 0% | Efficacy % ([1]; single active at 5.0 ppm): 34%

O=C1C2CC=CCC2C(=O)N1SC(Cl)(Cl)Cl (centres unmarked) [(5.003) captan]
inhibition of growth at 4 ppm ([1]; Botrytis cinerea, single active at 4 ppm, read-out: Efficacy %): 20% | inhibition of growth at 4 ppm [2, 8]: 54% | inhibition of growth at 20 ppm [2, 9]: 100%

N#Cc1sc2c(=O)c3ccccc3c(=O)c=2sc1C#N [(5.010) dithianon]
inhibition of growth at 0.8 ppm ([3]; compound alone, 0.8 ppm, read-out: Efficacy %): 11% | inhibition of growth at 20 ppm ([3]; compound alone, 20 ppm, read-out: Efficacy %): 98% | Efficacy % ([1]; single active at 20 ppm): 100%

O=C1c2ccccc2C(=O)N1SC(Cl)(Cl)Cl [(5.012) folpet]
inhibition of growth at 0.08 ppm ([1]; Botrytis cinerea, single active at 0.08 ppm, read-out: Efficacy %): 0% | inhibition of growth at 0.4 ppm ([1]; Botrytis cinerea, single active at 0.4 ppm, read-out: Efficacy %): 2% | Efficacy % ([1]; single active at 0.4 ppm): 0% | inhibition of growth at 2 ppm ([2]; Parastagonospora nodorum, compound alone, 2 ppm, read-out: Efficacy %): 91% | inhibition of growth at 10 ppm ([2]; Parastagonospora nodorum, compound alone, 10 ppm, read-out: Efficacy %): 100%

Cc1cc(C)nc(Nc2ccccc2)n1 [(7.005) pyrimethanil]
inhibition of growth at 0.8 ppm ([1]; Botrytis cinerea, single active at 0.8 ppm, read-out: Efficacy %): 78% | inhibition of growth at 0.8 ppm [2, 8]: 99% | inhibition of growth at 4 ppm [2, 8]: 100% | Efficacy % ([2]; compound alone, 20 ppm): 100%

Cc1ccc(C(F)(F)CNC(=O)c2c(Oc3cccc(C4CC4)c3F)nnc(Cl)c2C)c(C)c1 [Compound 1-655]
Efficacy % ([4]; 0.004 ppm): 0% | Efficacy % ([4]; 0.020 ppm): 0% | Efficacy % ([4]; 0.1 ppm): 0% | Efficacy % ([4]; 0.5 ppm): 7%

Fc1ccc(Oc2ccnc3cc(Cl)cc(Cl)c23)cc1 [Compound 13.005, quinoxyfen]
inhibition of growth at 0.4 ppm ([5]; Diaporthe citri, applied alone, 0.4 ppm, read-out: Efficacy): 0% | inhibition of growth at 10 ppm ([5]; Diaporthe citri, applied alone, 10 ppm, read-out: Efficacy): 54% | inhibition of growth at 0.08 ppm ([4]; Cercospora beticola, 0.08 ppm, read-out: Efficacy %): 0% | inhibition of growth at 0.4 ppm ([4]; Cercospora beticola, 0.4 ppm, read-out: Efficacy %): 2% | inhibition of growth at 10 ppm ([4]; Cercospora beticola, 10 ppm, read-out: Efficacy %): 20% | inhibition of growth at 2 ppm ([6]; Neocordana musae, 2 ppm, read-out: Efficacy): 1% | inhibition of growth at 10 ppm ([6]; Neocordana musae, 10 ppm, read-out: Efficacy): 15%

Cn1cc(C(=O)Nc2ccc(F)cc2-c2ccc(Cl)c(Cl)c2)c(C(F)F)n1 [bixafen]
Efficacy % ([7]; 0.04 ppm, alone): 79% | Efficacy % ([7]; 0.2 ppm, alone): 81% | Efficacy % ([7]; 1.0 ppm, alone): 86% | Efficacy ([2]; 0.2 ppm): 34% | Efficacy ([2]; 1.0 ppm): 41%

CCO[PH](=O)[O-].CCO[PH](=O)[O-].CCO[PH](=O)[O-].[Al+3] [fosetylaluminium]
Efficacy ([5]; applied alone, 0.8 ppm): 22% | Efficacy ([5]; applied alone, 4 ppm): 31% | Efficacy ([5]; applied alone, 20 ppm): 4% | Efficacy ([5]; applied alone, 100 ppm): 0% | Efficacy ([6]; 0.8 ppm): 0% | Efficacy ([6]; 4 ppm): 12% | Efficacy ([6]; 20 ppm): 0% | Efficacy % ([7]; 4 ppm, alone): 8% | Efficacy % ([7]; 20 ppm, alone): 27% | Efficacy % ([7]; 100 ppm, alone): 37%

N#Cc1ccccc1NC(=O)c1snc(Cl)c1Cl [isotianil]
Efficacy ([5]; 0.8 ppm): 0% | Efficacy ([5]; 4 ppm): 24% | Efficacy ([5]; 20 ppm): 0% | Efficacy ([5]; 100 ppm): 0% | Efficacy ([5]; applied alone, 0.8 ppm): 12% | Efficacy ([5]; applied alone, 4 ppm): 19% and 23% | Efficacy ([5]; applied alone, 20 ppm): 5% and 14% | Efficacy ([5]; applied alone, 100 ppm): 5% | Efficacy % ([4]; 0.8 ppm): 17% | Efficacy % ([4]; 4 ppm): 17% | Efficacy % ([4]; 20 ppm): 12% | Efficacy % ([4]; 100 ppm): 29% | Efficacy ([6]; 20 ppm): 3% | Efficacy ([6]; 100 ppm): 16% | Efficacy % ([7]; 4 ppm, alone): 0% | Efficacy % ([7]; 20 ppm, alone): 7% | Efficacy % ([7]; 100 ppm, alone): 0%

CCCOc1nc2ccc(I)cc2c(=O)n1CCC [proquinazid]
Efficacy ([5]; applied alone, 0.4 ppm): 11% | Efficacy ([5]; applied alone, 2 ppm): 0% | Efficacy ([6]; 0.080 ppm): 0% | Efficacy ([6]; 0.4 ppm): 0% | Efficacy ([6]; 2 ppm): 0% | Efficacy % ([7]; 0.08 ppm, alone): 0% | Efficacy % ([7]; 0.4 ppm, alone): 0% | Efficacy % ([7]; 2 ppm, alone): 0% | Efficacy % ([7]; 10 ppm, alone): 0% | Efficacy ([1]; 0.4 ppm): 0% | Efficacy ([1]; 2 ppm): 0% | Efficacy ([1]; 10 ppm): 0%

OC(Cc1ccccc1Cl)(Cn1nc[nH]c1=S)C1(Cl)CC1 (centres unmarked) [prothioconazole]
inhibition of growth at 0.008 ppm ([4]; Cercospora beticola, 0.008 ppm, read-out: Efficacy %): 0% | inhibition of growth at 0.04 ppm ([4]; Cercospora beticola, 0.04 ppm, read-out: Efficacy %): 88% | inhibition of growth at 0.008 ppm ([6]; Neocordana musae, 0.008 ppm, read-out: Efficacy): 0% | inhibition of growth at 0.04 ppm ([6]; Neocordana musae, 0.04 ppm, read-out: Efficacy): 64% | inhibition of growth at 0.2 ppm ([6]; Neocordana musae, 0.2 ppm, read-out: Efficacy): 100% | inhibition of growth at 0.008 ppm ([7]; Alternaria, 0.008 ppm, alone, read-out: Efficacy %): 0% | inhibition of growth at 0.2 ppm ([7]; Alternaria, 0.2 ppm, alone, read-out: Efficacy %): 100% | inhibition of growth at 1 ppm ([7]; Alternaria, 1.0 ppm, alone, read-out: Efficacy %): 100% | inhibition of growth at 0.04 ppm ([7]; Alternaria, applied alone, 0.04 ppm, read-out: Efficacy): 32% | inhibition of growth at 0.2 ppm ([7]; Alternaria, applied alone, 0.2 ppm, read-out: Efficacy): 99% | inhibition of growth at 1 ppm ([7]; Alternaria, applied alone, 1.0 ppm, read-out: Efficacy): 100%

mancozeb [Compound 5.013]
Efficacy ([5]; 0.4 ppm): 1% | Efficacy ([5]; 2 ppm): 45% | Efficacy ([5]; 10 ppm): 100% | Efficacy ([5]; applied alone, 0.080 ppm): 0% and 3% | Efficacy ([5]; applied alone, 0.4 ppm): 0% | Efficacy ([5]; applied alone, 2 ppm): 52% and 53% | Efficacy ([5]; applied alone, 10 ppm): 100% | Efficacy % ([3]; single compound, 0.08 ppm): 1% | Efficacy % ([3]; single compound, 2 ppm): 5% | Efficacy % ([3]; single compound, 10 ppm): 100% | Efficacy % ([4]; 0.4 ppm): 0% | Efficacy % ([4]; 2 ppm): 100% | Efficacy % ([4]; 10 ppm): 100% | Efficacy ([7]; applied alone, 2 ppm): 6% | Efficacy ([7]; applied alone, 10 ppm): 95%

propineb
Efficacy ([5]; 4 ppm): 23% | Efficacy ([5]; 20 ppm): 100% | Efficacy ([5]; 100 ppm): 97% | Efficacy ([5]; applied alone, 0.8 ppm): 0% | Efficacy ([5]; applied alone, 20 ppm): 98% and 100% | Efficacy ([5]; applied alone, 100 ppm): 100% | Efficacy % ([3]; single compound, 0.8 ppm): 4% and 6% | Efficacy % ([3]; single compound, 20 ppm): 100% | Efficacy % ([3]; single compound, 100.00 ppm): 79% | Efficacy ([6]; 0.8 ppm): 0% | Efficacy % ([7]; 0.8 ppm, alone): 18% and 11% | Efficacy % ([7]; 4 ppm, alone): 32% and 21% | Efficacy % ([7]; 20 ppm, alone): 66% and 71% | Efficacy % ([7]; 100 ppm, alone): 92% | Efficacy ([7]; applied alone, 4 ppm): 56% | Efficacy ([7]; applied alone, 20 ppm): 73% | Efficacy ([7]; applied alone, 100 ppm): 96%
